The values that follow come from US8334382B2, “Substituted biaryl piperazinyl-pyridine analogues” (Neurogen Corporation, priority 2004, dated 2012).

What is called IC50 is the concentration at which inhibition is half-maximal.

SMILES strings stand for the structures.

This test deals with T1, human capsaicin receptor (Homo sapiens, UniProt Q8NER1).
T1 construct: expressed in transfected cells; host or cells: HEK293, stably transfected with pBK-CMV construct
Nature of the test: Calcium mobilization assay, determination of antagonist activity. Format: cell-based. The note with it: capsaicin at EC50; cells expressing human capsaicin receptor; Example 6. The procedure, abridged:
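HEK293 cells stably expressing full-length human TRPV1, loaded with Fluo-3 AM in KRH buffer pH 7.4, preincubated with compound (final 1-5 µM) in the dark at room temperature for 0.5-6 h, then stimulated with capsaicin at its EC50. FLIPR fluorescence gave IC50 as concentration halving the capsaicin response.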
(In general: A change in cytosolic calcium serves as a functional read-out for many receptors and channels.)

T1 sequence (Q8NER1 whole entry): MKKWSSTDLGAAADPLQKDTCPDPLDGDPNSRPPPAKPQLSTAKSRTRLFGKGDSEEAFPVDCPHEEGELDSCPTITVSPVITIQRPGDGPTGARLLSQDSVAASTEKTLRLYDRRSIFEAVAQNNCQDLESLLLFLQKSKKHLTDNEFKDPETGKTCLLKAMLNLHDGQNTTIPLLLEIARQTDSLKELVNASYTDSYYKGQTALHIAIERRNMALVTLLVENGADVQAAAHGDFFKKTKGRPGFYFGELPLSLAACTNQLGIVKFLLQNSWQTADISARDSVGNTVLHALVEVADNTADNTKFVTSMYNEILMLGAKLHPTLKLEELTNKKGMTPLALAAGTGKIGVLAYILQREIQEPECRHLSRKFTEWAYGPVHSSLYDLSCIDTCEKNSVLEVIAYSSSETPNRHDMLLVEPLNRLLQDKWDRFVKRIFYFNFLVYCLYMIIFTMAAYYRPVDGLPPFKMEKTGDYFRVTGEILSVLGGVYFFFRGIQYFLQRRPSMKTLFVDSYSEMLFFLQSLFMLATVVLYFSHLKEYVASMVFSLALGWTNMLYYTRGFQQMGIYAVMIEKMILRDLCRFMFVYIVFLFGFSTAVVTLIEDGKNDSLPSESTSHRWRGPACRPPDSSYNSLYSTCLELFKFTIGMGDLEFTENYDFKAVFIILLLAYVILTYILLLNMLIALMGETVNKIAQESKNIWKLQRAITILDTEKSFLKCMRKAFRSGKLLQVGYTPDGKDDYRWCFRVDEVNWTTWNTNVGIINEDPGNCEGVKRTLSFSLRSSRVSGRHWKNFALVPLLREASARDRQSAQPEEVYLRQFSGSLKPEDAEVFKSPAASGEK

For `COC1CCN(C(=O)c2cnc(N3CCN(c4cc(-c5ccc(F)cc5)nc(N5CCCC5C)n4)CC3)c(C)c2)CC1` (centres unmarked) [Example 141, 4-(4-fluorophenyl)-6-(4-{5-[(4-methoxypiperidin-1-yl)carbonyl]-3-methylpyridin-2-yl}piperazin-1-yl)-2-(2-methylpyrrolidin-1-yl)pyrimidine], the IC50 was ≤ 1 µM.

With `CC1CCCN1c1nc(-c2ccc(F)cc2)cc(N2CCN(c3ncc(C(N)=O)cc3Cl)C[C@H]2C)n1` (stereo partly drawn) [Example 33, 5-Chloro-6-{4-[6-(4-fluoro-phenyl)-2-(2-methyl-pyrrolidin-1-yl)-pyrimidin-4-yl]-3-(R)-methyl-piperazin-1-yl}-nicotinamide], the IC50 was ≤ 1 µM.

On to `C[C@@H]1CN(c2ncc(CCCO)cc2Cl)CCN1c1cc(-c2ccc(F)c(Cl)c2)nc(N2CCC[C@H]2C)n1` (relative stereo) [Example 193, rel-3-{5-chloro-6-[(3R)-4-{6-(3-chloro-4-fluorophenyl)-2-[(2R)-2-methylpyrrolidin-1-yl]pyrimidin-4-yl}-3-methylpiperazin-1-yl]pyridin-3-yl}propan-1-ol], for which the IC50 is ≤ 1 µM. As for `Cc1cc(C(=O)O)cnc1N1CCN(c2cc(-c3cccc(Cl)c3)nc(N3CCC[C@H]3C)c2)[C@H](C)C1` [Example 175, 6-{4-[2-(3-Chloro-phenyl)-6-(2-(R)-methyl-pyrrolidin-1-yl)-pyridin-4-yl]-3-(R)-methyl-piperazin-1-yl}-5-methyl-nicotinic acid], the figure is ≤ 1 µM. To `Cc1cc(C(=O)N(C)CCN(C)C)cnc1N1CCN(c2cc(-c3ccc(F)cc3)nc(N3CCCC3C)n2)CC1` (centres unmarked) [Example 136, N-[2-(dimethylamino)ethyl]-6-{4-[6-(4-fluorophenyl)-2-(2-methylpyrrolidin-1-yl)pyrimidin-4-yl]piperazin-1-yl}-N,5-dimethylnicotinamide] belongs ≤ 1 µM; to `Cc1cc(OCCO)cnc1N1CCN(c2cc(-c3ccc(F)cc3)nc(N3CCC[C@H]3C)n2)[C@H](C)C1` (relative stereo) [Example 192, rel-2-({6-[(3R)-4-{6-(4-fluorophenyl)-2-[(2R)-2-methylpyrrolidin-1-yl]pyrimidin-4-yl}-3-methylpiperazin-1-yl]-5-methylpyridin-3-yl}oxy)ethanol], ≤ 1 µM; to `CC(C)c1cc(-c2cc(N3CCN(c4ncc(C(=O)O)cc4Cl)C[C@H]3C)nc(N3CCCC3C)n2)ccn1` (stereo partly drawn) [Example 53, 5-Chloro-6-{4-[6-(2-isopropyl-pyridin-4-yl)-2-(2-methyl-pyrrolidin-1-yl)-pyrimidin-4-yl]-3-(R)-methyl-piperazin-1-yl}-nicotinic acid], ≤ 1 µM. `Cc1cc(C(=O)NCc2ccccc2)cnc1N1CCN(c2cc(-c3ccc(F)cc3)nc(N3CCCC3C)n2)CC1` (centres unmarked) [Example 113, N-benzyl-6-{4-[6-(4-fluorophenyl)-2-(2-methylpyrrolidin-1-yl)pyrimidin-4-yl]piperazin-1-yl}-5-methylnicotinamide]: the IC50 is ≤ 1 µM. As for `Cc1cc(CO)cnc1N1CCN(c2cc(-c3ccccc3)nc(N3CCCC3C)n2)[C@H](C)C1` (stereo partly drawn) [Example 63, (5-Methyl-6-{3-(R)-methyl-4-[2-(2-methyl-pyrrolidin-1-yl)-6-phenyl-pyrimidin-4-yl]-piperazin-1-yl}-pyridin-3-yl)-methanol], the figure is ≤ 1 µM; as for `Cc1cc(C(=O)O)cnc1N1CCN(c2cc(-c3ccnc(C(C)C)c3)nc(N3CCCC3C)n2)CC1` (centres unmarked) [Example 78, 6-{4-[6-(2-Isopropyl-pyridin-4-yl)-2-(2-methyl-pyrrolidin-1-yl)-pyrimidin-4-yl]-piperazin-1-yl}-5-methyl-nicotinic acid], ≤ 1 µM.

As to `CCOC(=O)c1cnc(N2CCN(c3cc(-c4cccc(C)c4)nc(N4CCCC4C)n3)[C@H](C)C2)c(Cl)c1` (stereo partly drawn) [Example 46, 5-Chloro-6-{3-(R)-methyl-4-[2-(2-methyl-pyrrolidin-1-yl)-6-m-tolyl-pyrimidin-4-yl]-piperazin-1-yl}-nicotinic acid ethyl ester], the IC50 is ≤ 1 µM. As for `Cc1ccc(C(=O)O)nc1N1CCN(c2cc(-c3ccc(F)cc3)nc(N3CCC[C@H]3C)n2)[C@H](C)C1` [Example 144, 6-{4-[6-(4-Fluoro-phenyl)-2-(2-(R)-methyl-pyrrolidin-l-yl)-pyrimidin-4-yl]-3-(R)-methyl-piperazin-1-yl}-5-methyl-pyridine-2-carboxylic acid], the figure is ≤ 1 µM; as for `C[C@@H]1CN(c2ncc(C(=O)O)cc2Cl)CCN1c1cc(-c2ccc(F)cc2)nc(N2CCC[C@H]2C)n1` [Example 94, 5-Chloro-6-{4-[6-(4-fluoro-phenyl)-2-(2-(R)-methyl-pyrrolidin-1-yl) - pyrimidin-4-yl]-3-(R)-methyl-piperazin-1-yl} - nicotinic acid], ≤ 1 µM; as for `C[C@@H]1CN(c2ncc(C(=O)O)cc2Cl)CCN1c1cc(-c2ccc(F)cc2)nc(N2CCC[C@H]2CO)n1` [Example 156, 5-Chloro-6-{4-[6-(4-fluoro-phenyl)-2-(2-(S)-hydroxymethyl-pyrrolidin-1-yl)-pyrimidin-4-yl]-3-(R)-methyl-piperazin-1-yl}-nicotinic acid], ≤ 1 µM.

Regarding `CC1CCCN1c1nc(-c2ccc(F)c(Cl)c2)cc(N2CCN(c3ncc(CO)cc3Cl)CC2)n1` (centres unmarked) [Example 10, (5-Chloro-6-{4-[6-(3-chloro-4-fluoro-phenyl)-2-(2-methyl-pyrrolidin-1-yl)-pyrimidin-4-yl]-piperazin-1-yl}-pyridin-3-yl)-methanol], the IC50 was ≤ 1 µM. To `Cc1cc(C(=O)O)cnc1N1CCN(c2cc(-c3ccc(F)cc3)nc(N3CCCC3C)n2)CC1` (centres unmarked) [Example 36, 6-{4-[6-(4-Fluoro-phenyl)-2-(2-methyl-pyrrolidin-1-yl)-pyrimidin-4-yl]-piperazin-1-yl}-5-methyl-nicotinic acid] belongs ≤ 1 µM; to `C[C@@H]1CN(c2ncc(C(=O)NCCO)cc2Cl)CCN1c1cc(-c2ccc(F)c(Cl)c2)nc(N2CCC[C@H]2C)n1` [Example 149, 5-Chloro-6-{4-[6-(3-chloro-4-fluoro-phenyl)-2-(2-(R)-methyl-pyrrolidin-1-yl)-pyrimidin-4-yl]-3-(R)-methyl-piperazin-1-yl}-N-(2-hydroxy-ethyl)-nicotinamide], ≤ 1 µM. `Cc1cc(C(=O)N2CCCCC2C)cnc1N1CCN(c2cc(-c3ccc(F)cc3)nc(N3CCCC3C)n2)CC1` (centres unmarked) [Example 128, 4-(4-fluorophenyl)-6-(4-{3-methyl-5-[(2-methylpiperidin-1-yl)carbonyl]pyridin-2-yl}piperazin-1-yl)-2-(2-methylpyrrolidin-1-yl)pyrimidine]: the IC50 is ≤ 1 µM. Regarding `Cc1cc(C(=O)NCc2cccs2)cnc1N1CCN(c2cc(-c3ccc(F)cc3)nc(N3CCCC3C)n2)CC1` (centres unmarked) [Example 118, 6-{4-[6-(4-fluorophenyl)-2-(2-methylpyrrolidin-1-yl)pyrimidin-4-yl]piperazin-1-yl}-5-methyl-N-(2-thienylmethyl) nicotinamide], the IC50 was ≤ 1 µM. With `C[C@@H]1CN(c2ncc(C(N)=O)cc2Cl)CCN1c1cc(-c2ccc(F)c(Cl)c2)nc(N2CCC[C@H]2C)n1` [Example 102, 5-Chloro-6-{4-[6-(3-chloro-4-fluoro-phenyl)-2-(2-(R)-methyl-pyrrolidin-l-yl)-pyrimidin-4-yl]-3-(R)-methyl-piperazin-1-yl}-nicotinamide], the IC50 is ≤ 1 µM.
